According to patent US20140031325A1, “COMBINATION THERAPY WITH LENALIDOMIDE AND A CDK INHIBITOR FOR TREATING MULTIPLE MYELOMA” (Celgene Corporation, priority 2010, published 2014):

Legend:
multiple myeloma = experiment: Combination therapy of lenalidomide and CDK4/CDK6 inhibitor (PD 0332991) in patients with multiple myeloma; format: in vivo
Experimental: Lenalidomide and a CDK4/CDK6 inhibitor control tumor expansion and enhance tumor killing in the treatment of multiple myeloma. Patients with multiple myeloma are treated with lenalidomide (Revlimid®, 5 to 25 mg/day orally on days 1-21 in a 28 days cycle) and a CDK4/CDK6 inhibitor (PD 0332991, 25 to 150 mg/day orally on days 1-21 in a 28 days cycle). Maintenance treatment are continued until the disease progression.

[1] = system: newly diagnosed multiple myeloma; experiment: Combination therapy of lenalidomide and dexamethasone in patients with newly diagnosed multiple myeloma; format: in vivo
Description: Most adverse events were manageable with dose modification. The combination therapy is an effective first-line therapy for the treatment of patients with newly diagnosed multiple myeloma.

[2] = lenalidomide in combination with dexamethasone, newly diagnosed multiple myeloma

`Nc1cccc2c1CN(C1CCC(=O)NC1=O)C2=O` (stereo not drawn) [lenalidomide, 3-(4-amino-1-oxo-1,3-dihydro-isoindol-2-yl)-piperidine-2,6-dione] was tested, and the “activity of the therapy in multiple myeloma patients” value (multiple myeloma; Revlimid 5 to 25 mg/day orally days 1-21 of 28-day cycle in combination with PD 0332991 25 to 150 mg/day orally days 1-21) was “highly active”, the tolerability (multiple myeloma; Revlimid 5 to 25 mg/day orally in combination with PD 0332991 25 to 150 mg/day orally, multiple myeloma patients) was “well tolerated” and the “overall response rate and complete response” value [1, 2] was “high overall response rate and complete response”. The “progression-free survival at 1 year” value [1, 2] was “significantly increased progression-free survival at 1 year”, the tolerability [1, 2] was “well tolerated” and the patient response ([1]; newly diagnosed multiple myeloma patients, lenalidomide 25 mg/day days 1-21 of 28-day cycle in combination with dexamethasone 40 mg/day (days 1-4, 9-12, 17-20 or days 1, 8, 15, 22)) was “most of patients responded”.
